Laboratory results published in US20100022491A1, “4-HYDROXY-2-OXO-2,3-DIHYDRO-1,3-BENZOTHIAZOL-7YL COMPOUNDS FOR MODULATION OF B2-ADRENORECEPTOR ACTIVITY” (ASTRAZENECA AB, priority 2006, published 2010).
Where a name gives a salt, the structure may show the parent alone.

Experiments:
[1] = biological target: T1, recombinant human α1D receptor (Homo sapiens, UniProt P25100); assay: Adrenergic α1D selectivity binding assay ([3H]-prazosin); details: inhibition of [3H]-prazosin (0.3 nM) binding, HEK293 membranes; for IC50: read-out: α1 bind pIC50 (converted)
T1 construct: expressed in transfected cells; host or cells: HEK293
T1 sequence (P25100 1-572): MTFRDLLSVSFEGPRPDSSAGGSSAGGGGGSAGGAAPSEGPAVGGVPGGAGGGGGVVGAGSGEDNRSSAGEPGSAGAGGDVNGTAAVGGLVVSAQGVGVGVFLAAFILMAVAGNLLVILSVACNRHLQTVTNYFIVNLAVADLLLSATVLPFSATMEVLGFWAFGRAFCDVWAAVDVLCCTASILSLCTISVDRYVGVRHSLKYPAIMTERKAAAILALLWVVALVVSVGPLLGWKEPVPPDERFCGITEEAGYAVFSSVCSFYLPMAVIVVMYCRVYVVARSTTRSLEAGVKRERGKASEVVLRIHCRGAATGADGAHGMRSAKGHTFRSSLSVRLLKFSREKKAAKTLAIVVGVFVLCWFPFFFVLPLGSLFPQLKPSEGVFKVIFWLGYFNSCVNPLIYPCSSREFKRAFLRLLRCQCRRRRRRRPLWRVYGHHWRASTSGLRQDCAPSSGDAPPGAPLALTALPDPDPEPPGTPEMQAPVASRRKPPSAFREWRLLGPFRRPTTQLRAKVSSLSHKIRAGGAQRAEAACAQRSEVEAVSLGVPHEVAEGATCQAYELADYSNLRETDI
In short: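 HEK293 membranes with recombinant human α1D receptor incubated 2 h at room temperature with 0.3 nM [3H]-prazosin and compound in 50 mM HEPES, 1 mM EDTA, 0.1% gelatin, pH 7.4; BMY7378 (10 μM) defined non-specific binding. Filter-bound radioactivity counted; pIC50 from four-parameter logistic fit.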

[2] = biological target: T2, recombinant human Dopamine Subtype D2s receptors (Homo sapiens, UniProt P14416); assay: Dopamine D2 selectivity binding assay ([3H]-spiperone); details: inhibition of [3H]-spiperone (0.16 nM) binding; for IC50: read-out: D2 bind pIC50 (converted)
T2 construct: purchased Perkin Elmer
In short: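 Recombinant human D2s membranes incubated 2 h at room temperature with 0.16 nM [3H]-spiperone in HEPES/EDTA/NaCl/gelatin buffer, pH 7.4; 10 μM haloperidol defined non-specific binding. Filter-bound radioactivity counted after cold washes. pIC50 from 4-parameter logistic fit of NSB-corrected specific binding.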

T2 sequence (P14416 1-414 isoform P14416-2): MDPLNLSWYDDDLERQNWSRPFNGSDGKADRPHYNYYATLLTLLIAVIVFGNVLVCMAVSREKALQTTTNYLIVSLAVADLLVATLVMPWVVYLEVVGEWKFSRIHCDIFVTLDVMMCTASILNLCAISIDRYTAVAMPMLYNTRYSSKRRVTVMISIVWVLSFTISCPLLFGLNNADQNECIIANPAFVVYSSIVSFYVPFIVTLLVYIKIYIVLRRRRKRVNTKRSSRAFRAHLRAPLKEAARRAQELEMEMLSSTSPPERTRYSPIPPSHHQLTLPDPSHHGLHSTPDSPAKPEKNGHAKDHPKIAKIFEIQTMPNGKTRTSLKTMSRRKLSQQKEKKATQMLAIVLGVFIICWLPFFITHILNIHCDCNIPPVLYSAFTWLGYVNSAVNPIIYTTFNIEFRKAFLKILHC

SMILES	IC50 [1] [nM]	IC50 [2] [nM]	α1 bind pIC50 [1]	D2 bind pIC50 [2]
O=C(CCNCCc1ccc(Cl)cc1)N(CCNCCc1ccc(O)c2[nH]c(=O)sc12)C1CCCCC1 [Example 13, N^3-[2-(4-Chlorophenyl)ethyl]-N-cyclohexyl-N-(2-{[2-(4-hydroxy-2-oxo-2,3-dihydro-1,3-benzothiazol-7-yl)ethyl]amino}ethyl)-β-alaninamide bis-trifluoroacetic acid salt]	316	126		
O=C(CCNCCc1cccc(F)c1)N(CCNCCc1ccc(O)c2[nH]c(=O)sc12)C1CCCCC1 [Example 15, N-Cyclohexyl-N^3-[2-(3-fluorophenyl)ethyl]-N-(2-{[2-(4-hydroxy-2-oxo-2,3-dihydro-1,3-benzothiazol-7-yl)ethyl]amino}ethyl)-β-alaninamide bis-trifluoroacetic acid salt]			6.7	6.4
O=C(CCNCCc1cccc(F)c1F)N(CCNCCc1ccc(O)c2[nH]c(=O)sc12)C1CCCCC1 [Example 81, N^1-Cyclohexyl-N^3-[2-(2,3-difluorophenyl)ethyl]-N^1-(2-{[2-(4-hydroxy-2-oxo-2,3-dihydro-1,3-benzothiazol-7-yl)ethyl]amino}ethyl)-β-alaninamide bis-trifluoroacetic acid salt]	200	316		
O=C(CCNCCc1ccc2c(c1)OCO2)N(CCNCCc1ccc(O)c2[nH]c(=O)sc12)C1CCCCC1 [Example 76, N^3-[2-(1,3-Benzodioxol-5-yl)ethyl]-N^1-cyclohexyl-N^1-(2-{[2-(4-hydroxy-2-oxo-2,3-dihydro-1,3-benzothiazol-7-yl)ethyl]amino}ethyl)-β-alaninamide bis-trifluoroacetic acid salt]	158	200		
O=C(CCNCCc1ccc(Cl)cc1)N(CCNCCc1ccc(O)c2[nH]c(=O)sc12)C1CCC(F)(F)CC1 [Example 48, N^3-[2-(4-Chlorophenyl)ethyl]-N^1-(4,4-difluorocyclohexyl)-N^1-(2-{[2-(4-hydroxy-2-oxo-2,3-dihydro-1,3-benzothiazol-7-yl)ethyl]amino}ethyl)-β-alaninamide bis-trifluoroacetic acid salt]	631	100		
Cc1cccc(CCNCCC(=O)N(CCNCCc2ccc(O)c3[nH]c(=O)sc23)C2CCCCC2)c1 [Example 14, N-Cyclohexyl-N-(2-{[2-(4-hydroxy-2-oxo-2,3-dihydro-1,3-benzothiazol-7-yl)ethyl]amino}ethyl)-N^3-[2-(3-methylphenyl)ethyl]-β-alaninamide bis-trifluoroacetic acid salt]	158	501		
O=C(CCNCCc1nc2ccccc2[nH]1)N(CCNCCc1ccc(O)c2[nH]c(=O)sc12)C1CCCCC1 [Example 77, N^3-[2-(1H-Benzimidazol-2-yl)ethyl]-N^1-cyclohexyl-N^1-(2-{[2-(4-hydroxy-2-oxo-2,3-dihydro-1,3-benzothiazol-7-yl)ethyl]amino}ethyl)-β-alaninamide tris-trifluoroacetic acid salt]	251	158		
O=C(CCNC[C@H](O)c1ccccc1)N(CCNCCc1ccc(O)c2[nH]c(=O)sc12)C1CCCCC1 [Example 75, N^1-Cyclohexyl-N^1-(2-{[2-(4-hydroxy-2-oxo-2,3-dihydro-1,3-benzothiazol-7-yl)ethyl]amino}ethyl)-N^3-[(2R)-2-hydroxy-2-phenylethyl]-β-alaninamide bis-trifluoroacetic acid salt]	251	398		
O=C(CCNCCc1cccc(F)c1)N(CCNCCc1ccc(O)c2[nH]c(=O)sc12)C1CCCCCC1 [Example 95, N-Cycloheptyl-N^3-[2-(3-fluorophenyl)ethyl]-N-(2-{[2-(4-hydroxy-2-oxo-2,3-dihydro-1,3-benzothiazol-7-yl)ethyl]amino}ethyl)-β-alaninamide dihydromide salt]			6.8	6.7
C[C@H](CNCCC(=O)N(CCNCCc1ccc(O)c2[nH]c(=O)sc12)C1CCCC1)c1ccccc1 [Example 31, N-cyclopentyl-N-(2-{[2-(4-hydroxy-2-oxo-2,3-dihydro-1,3-benzothiazol-7-yl)ethyl]amino}ethyl)-N^3-[(2S)-2-phenylpropyl]-β-alaninamide bis-trifluoroacetic acid salt]	200	251		
CC(C)(C)CN(CCNCCc1ccc(O)c2[nH]c(=O)sc12)C(=O)CCNCCc1cccc(Cl)c1 [Example 7, N^3-[2-(3-Chlorophenyl)ethyl]-N-(2,2-dimethylpropyl)-N-(2-{[2-(4-hydroxy-2-oxo-2,3-dihydro-1,3-benzothiazol-7-yl)ethyl]amino}ethyl)-β-alaninamide bis-trifluoroacetic acid salt]	251	316		
O=C(CCNCCc1cc(F)cc(F)c1)N(CCNCCc1ccc(O)c2[nH]c(=O)sc12)C1CCCCC1 [Example 92, N-Cyclohexyl-N^3-[2-(3,5-difluorophenyl)ethyl]-N-(2-{[2-(4-hydroxy-2-oxo-2,3-dihydro-1,3-benzothiazol-7-yl)ethyl]amino}ethyl)-β-alaninamide dihydrobromide salt]			6.6	6.5
O=C(CCNCCc1ccc(Cl)cc1)N(CCNCCc1ccc(O)c2[nH]c(=O)sc12)C1CCCC1 [Example 28, N^3-[2-(4-Chlorophenyl)ethyl]-N-cyclopentyl-N-(2-{[2-(4-hydroxy-2-oxo-2,3-dihydro-1,3-benzothiazol-7-yl)ethyl]amino}ethyl)-β-alaninamide bis-trifluoroacetic acid salt]	316	398		
O=C(CCNCCc1ccc(F)c(F)c1)N(CCNCCc1ccc(O)c2[nH]c(=O)sc12)C1CCCCC1 [Example 73, N^1-Cyclohexyl-N^3-[2-(3,4-difluorophenyl)ethyl]-N^1-(2-{[2-(4-hydroxy-2-oxo-2,3-dihydro-1,3-benzothiazol-7-yl)ethyl]amino}ethyl)-β-alaninamide bis-trifluoroacetic acid salt]	398	200		
CC(C)(CO)CN(CCNCCc1ccc(O)c2[nH]c(=O)sc12)C(=O)CCNCCc1ccccc1Cl [Example 65, N^3-[2-(2-Chlorophenyl)ethyl]-N^1-(3-hydroxy-2,2-dimethylpropyl)-N^1-(2-{[2-(4-hydroxy-2-oxo-2,3-dihydro-1,3-benzothiazol-7-yl)ethyl]amino}ethyl)-β-alaninamide bis-trifluoroacetic acid salt]	100	398		
O=C(CCNCCc1cccc(Cl)c1)N(CCNCCc1ccc(O)c2[nH]c(=O)sc12)C1Cc2ccccc2C1 [Example 42, N^3-[2-(3-Chlorophenyl)ethyl]-N^1-(2,3-dihydro-1H-inden-2-yl)-N^1-(2-{[2-(4-hydroxy-2-oxo-2,3-dihydro-1,3-benzothiazol-7-yl)ethyl]amino}ethyl)-β-alaninamide bis-trifluoroacetic acid salt]	63.1	100		
C[C@H](CNCCC(=O)N(CCNCCc1ccc(O)c2[nH]c(=O)sc12)CC(C)(C)C)c1ccccc1 [Example 11, N-(2,2-Dimethylpropyl)-N-(2-{[2-(4-hydroxy-2-oxo-2,3-dihydro-1,3-benzothiazol-7-yl)ethyl]amino}ethyl)-N^3-[(2S)-2-phenylpropyl]-β-alaninamide bis-trifluoroacetic acid salt]	501	501		
